Several values for one entry are separate records, joined by “and”; a condition that tells them apart may be missing. Identical values can stand only once. ± gives the expanded uncertainty stated by the source.
Experiments:
[1] = for viscosity / mass density: 101 kPa, Liquid; for viscosity: Falling or rolling sphere viscometry; for mass density: Vibrating tube method
[2] = xn = mol fraction of the nth substance listed; details: 101 kPa, Liquid, x2 = 0; for viscosity: Falling or rolling sphere viscometry; for mass density: Vibrating tube method

O [water]
[1]
Details | mass density [kg/m3] | viscosity
298.15 K | – | 0.89 ± 0.14 mPa·s
303.15 K | – | 0.808 ± 0.13 mPa·s
308.15 K | – | 0.74 ± 0.12 mPa·s
313.15 K | 992.15 ± 0.2 | 0.681 ± 0.11 mPa·s
318.15 K | – | 0.63 ± 0.1 mPa·s
323.15 K | 987.93 ± 0.2 | 0.593 ± 0.095 mPa·s
328.15 K | 985.69 ± 0.2 | 0.56 ± 0.09 mPa·s
333.15 K | 983.17 ± 0.2 | 0.528 ± 0.085 mPa·s
338.15 K | 980.3 ± 0.2 | 0.519 ± 0.083 mPa·s and 0.5 ± 0.08 mPa·s
343.15 K | 978.1 ± 0.2 | 0.51 ± 0.082 mPa·s and 0.473 ± 0.076 mPa·s

O [water] + CCOS(=O)(=O)[O-].CC[N+]1(C)CCOCC1
[2]
Details | mass density [kg/m3] | viscosity [mPa·s]
298.15 K | – | 0.89 ± 0.14
303.15 K | – | 0.808 ± 0.13
308.15 K | – | 0.74 ± 0.12
313.15 K | 992.15 ± 0.2 | 0.681 ± 0.11
318.15 K | – | 0.63 ± 0.1
323.15 K | 987.93 ± 0.2 | 0.593 ± 0.095
328.15 K | 985.69 ± 0.2 | 0.56 ± 0.09
333.15 K | 983.17 ± 0.2 | 0.528 ± 0.085
338.15 K | 980.3 ± 0.2 | 0.5 ± 0.08
343.15 K | 978.1 ± 0.2 | 0.473 ± 0.076

CCOS(=O)(=O)[O-].CC[N+]1(C)CCOCC1 [4-ethyl-4-methylmorpholinium ethyl sulfate]
[1]
Details | mass density [kg/m3] | viscosity [mPa·s]
298.15 K | 1252.26 ± 3 | –
303.15 K | 1249.05 ± 3 | –
308.15 K | 1245.86 ± 3 | –
313.15 K | 1242.67 ± 3 | 2426 ± 480
318.15 K | 1239.51 ± 3 | 1677 ± 320
323.15 K | 1236.35 ± 3 | 1129 ± 210
328.15 K | 1233.2 ± 2.9 | 779.3 ± 140
333.15 K | 1230.06 ± 2.9 | 552.3 ± 98
338.15 K | 1226.93 ± 2.9 | 400.8 ± 69
343.15 K | 1223.81 ± 2.9 | 297.3 ± 50

CCOS(=O)(=O)[O-].CC[N+]1(C)CCCC1 [1-ethyl-1-methylpyrrolidinium ethyl sulfate]
[1]
Details | mass density [kg/m3] | viscosity [mPa·s]
313.15 K | 1176.31 ± 2.7 | 78.32 ± 13
318.15 K | 1173.63 ± 2.6 | 64.72 ± 10
323.15 K | 1170.95 ± 2.6 | 53.51 ± 8.6
328.15 K | 1168.27 ± 2.6 | 44.82 ± 7.2
333.15 K | 1165.59 ± 2.6 | 37.95 ± 6.1
338.15 K | 1162.91 ± 2.6 | 32.87 ± 5.3
343.15 K | 1160.23 ± 2.6 | 29.23 ± 4.7

Details | Normal melting temperature [°C]
[1], Crystal, visual observation | 36.92 ± 0.5

CCOS(=O)(=O)[O-].CC[N+]1(C)CCCCC1 [1-ethyl-1-methylpiperidinium ethyl sulfate]
[1]
Details | mass density [kg/m3] | viscosity [mPa·s]
298.15 K | 1181.33 ± 2.7 | 1821 ± 360
303.15 K | 1178.23 ± 2.7 | 1186 ± 220
308.15 K | 1175.1 ± 2.7 | 795.7 ± 140
313.15 K | 1171.79 ± 2.6 | 549.9 ± 97
318.15 K | 1168.85 ± 2.6 | 391.8 ± 68
323.15 K | 1165.73 ± 2.6 | 285.8 ± 48
328.15 K | 1162.62 ± 2.6 | 212.6 ± 35
333.15 K | 1159.54 ± 2.6 | 162.5 ± 27
338.15 K | 1156.56 ± 2.6 | 126.1 ± 21
343.15 K | 1153.58 ± 2.6 | 99.87 ± 16

O [water] + CCOS(=O)(=O)[O-].CC[N+]1(C)CCCC1
[2]
Details | mass density [kg/m3] | viscosity [mPa·s]
313.15 K | 992.15 ± 0.2 | 0.681 ± 0.11
318.15 K | – | 0.63 ± 0.1
323.15 K | 987.93 ± 0.2 | 0.593 ± 0.095
328.15 K | 985.69 ± 0.2 | 0.56 ± 0.09
333.15 K | 983.17 ± 0.2 | 0.528 ± 0.085
338.15 K | 980.3 ± 0.2 | 0.519 ± 0.083
343.15 K | 978.1 ± 0.2 | 0.51 ± 0.082

O [water] + CCOS(=O)(=O)[O-].CC[N+]1(C)CCCCC1
[2]
Details | mass density [kg/m3] | viscosity [mPa·s]
298.15 K | – | 0.89 ± 0.14
303.15 K | – | 0.808 ± 0.13
308.15 K | – | 0.74 ± 0.12
313.15 K | 992.15 ± 0.2 | 0.681 ± 0.11
318.15 K | – | 0.63 ± 0.1
323.15 K | 987.93 ± 0.2 | 0.593 ± 0.095
328.15 K | 985.69 ± 0.2 | 0.56 ± 0.09
333.15 K | 983.17 ± 0.2 | 0.528 ± 0.085
338.15 K | 980.3 ± 0.2 | 0.5 ± 0.08
343.15 K | 978.1 ± 0.2 | 0.473 ± 0.076

From the NIST ThermoML archive (doi:10.1016/j.tca.2014.02.019)
